In patent publication US8614064B2, “Methods of diagnosing atherosclerosis by measuring ApoCI” (The Johns Hopkins University, priority 2003, dated 2013):

Experiments:
[1] = system: cytochrome c; assay: Cytochrome c release, Western immunoblot with densitometric scanning, ASMC; assay type: cell-based, human; conditions: 24 h; ApoCI and ApoCIII 2.5 μg/mL, ApoCI-enriched HDL 1 μg apoA-I/mL
Description: FIGS. 5A-5C depict the effect of ApoCI, ApoCIII, ApoCI-enriched HDL, and GW4869 on cytochrome c release in ASMC. After treatment of confluent cells for 24 hours with ApoCI (2.5 μg/mL medium), ApoCIII (2.5 μg/mL medium), or ApoCI-enriched HDL (1 μg apoA-I/mL medium), the cells were lysed. The cell lysate was used as the source of cytochrome c, and the pellet was used as a source of caspase-3. The cell lysates were separated by SDS-polyacrylamide gel electrophoresis, blotted onto nitrocellulose, and cytochrome c detected using a polyclonal antibody against cytochrome c (FIG. 5A, top panel). The gels were then subjected to densitometric scanning (FIG. 5B, middle panel). In a separate experiment (FIG. 5C, right), confluent cells were grown on cover slips and pretreated with serum-free medium for 30 minutes. The cells were then incubated with control medium, ApoCI (2.5 μg/mL medium), TNF-α (20 ng/mL), or ApoCI (2.5 μg/mL)+GW4869 (20 μmol/L) for 24 hours. The cells were then washed, treated with a primary anti-cytochrome c antibody, washed with phosphate-buffered saline, and treated with a fluorescein isothiocyanate-conjugated anti-rabbit IgG (FIG. 5C, lower panel). […]

[2] = system: ceramide; assay: Anti-ceramide antibody immunofluorescence microscopy in ASMC; assay type: cell-based, human; conditions: 24 h
Description: FIGS. 4A-4D depict the effect of ApoCI, ApoCI-enriched HDL, and ApoCI-poor HDL on the level of ceramide in ASMC. Confluent ASMC were incubated with ApoCI (2.5 μg/mL) with time (FIG. 4A, upper left) or with ApoCI-enriched HDL (1 μg apoA-I/mL medium) or ApoCI-poor HDL (5 μg apoA-I/mL medium) (FIG. 4B, upper right) for 30 minutes. FIG. 4C: The cells were incubated with ApoCI alone ([…]) for 5 minutes or preincubated with GW4869 (20 μmol/L) for 30 minutes. After addition of ApoCI (2.5 μg/mL), incubation was continued for 6 hours, 12 hours, and 24 hours. After incubation, cells were harvested and the levels of ceramide determined using the diacylglycerol kinase assay. The level of phosphate was measured and the data (mean±SD) were expressed as percentage of the total ceramide present in untreated cells (vehicle DMSO). *P<0.05. In a separate experiment (FIG. 4D, right), confluent cells were grown on cover slips and pretreated with serum-free medium for 30 minutes. The cells were then incubated with vehicle DMSO alone (control), ApoCI (2.5 μg/ML), or ApoCI (2.5 μg/mL) plus the N-SMase inhibitor GW4869 (20 μmol/L) for 24 hours. The cells were then washed, treated with a primary anticeramide antibody, washed with phosphate-buffered saline, and treated with a fluorescein isothiocyanate-conjugated anti-mouse IgG (FIG. 4C, lower panel).

Compound | stimulation of the release of cytochrome c [1] [fold] | effect of GW4869 on ApoCI-induced ceramide immunofluorescence ([2]; ApoCI 2.5 μg/mL plus GW4869 20 μmol/L) | anti-ceramide immunofluorescence of treated cells ([2]; ApoCI 2.5 μg/mL, compared with control cells)
ApoCIII: purified human ApoCIII purchased from Academy Bio-Medical Company, used as negative control | 2.3 |  | 
O=C(/C=C/c1ccc(/C=C/C(=O)Nc2ccc(C3=NCCN3)cc2)cc1)Nc1ccc(C2=NCCN2)cc1 [GW4869] |  | eliminated | 
Apolipoprotein C-I (TPDVSSALDKLKEFGNTLEDKARELISRIKQSELSAKMREWFSETFQKVKEKLKIDS; UniProt P02654 27-83, looked up) [ApoCI, 6.6-kDa single-chain plasma protein of 57 amino acids; purified human ApoCI purchased from Academy Bio-Medical Company] | 4.1 |  | reacted strongly
